According to PMC4118284 (Leukemia, 2012):
Where two headings read alike, the source gives them in different places.

Tests used:
[1] = system: newly diagnosed patients with acute myeloid leukemia (AML); assay: Phase 1b trial: efficacy; assay type: in vivo, human
[2] = system: newly diagnosed patients with acute myeloid leukemia (AML); conditions: 50 mg twice daily; either arm
[3] = system: patients with FLT3-mutant and FLT3-wild-type AML; conditions: single agent, cited from earlier work; for Patients with ≥ 50% peripheral blood blast reduction: 75 mg three times daily or 50 mg or 100 mg twice daily
[4] = Plasma concentrations of midostaurin and metabolites; conditions: for Plasma concentration, Max / Plasma concentration, Median / Plasma concentration, Min: 50 mg BID
[5] = system: newly diagnosed patients with FLT3-mutant AML; conditions: sorafenib plus induction chemotherapy; 15 newly diagnosed patients with FLT3-mutant AML; cited from earlier work
[6] = Concomitant (days 1-7 and 15-21), Induction cycle 1, day 1
[7] = Concomitant, First consolidation cycle, day 1.5
[8] = Concomitant, First consolidation cycle, day 15.5
[9] = Concomitant, First consolidation cycle, day 29.5
[10] = Concomitant, Induction cycle 1, Day 1 (+ 2 h)
[11] = Concomitant, Induction cycle 1, Day 1 (+ 4 h)
[12] = Concomitant, Induction cycle 1, day 2
[13] = Concomitant, Induction cycle 1, day 4
[14] = Concomitant, Induction cycle 1, day 15 (+ 2 h)
[15] = Concomitant, Induction cycle 1, day 15 (+ 4 h)
[16] = Sequential (days 8-21), Induction cycle 1, day 8
[17] = Sequential, First consolidation cycle, day 1.5
[18] = Sequential, First consolidation cycle, day 15.5
[19] = Sequential, First consolidation cycle, day 29.5
[20] = Sequential, Induction cycle 1, day 8 (+ 2 h)
[21] = Sequential, Induction cycle 1, day 8 (+ 4 h)
[22] = Sequential, Induction cycle 1, day 9
[23] = Sequential, Induction cycle 1, day 15
[24] = Sequential, Induction cycle 1, day 22.5
[25] = Sequential, Induction cycle 1, day 29.5

## CO[C@@H]1[C@H](N(C)C(=O)c2ccccc2)C[C@H]2O[C@]1(C)n1c3ccccc3c3c4c(c5c6ccccc6n2c5c31)C(=O)NC4 [midostaurin, Midostaurin]
[1]; 50 mg twice daily, FLT3-mutant AML, 1 year
  Kaplan-Meier OS probability: 0.85
[1]; 50 mg twice daily, FLT3-mutant AML, 2 years
  Kaplan-Meier OS probability: 0.62
[1]; 50 mg twice daily, FLT3-mutant, 12 of 13 patients
  Complete remission (CR) rate: 92%
[1]; 50 mg twice daily, FLT3-wild-type AML, 1 year
  Kaplan-Meier OS probability: 0.78
[1]; 50 mg twice daily, FLT3-wild-type AML, 2 years
  Kaplan-Meier OS probability: 0.52
[1]; 50 mg twice daily, FLT3-wild-type, 20 of 27 patients
  Complete remission (CR) rate: 74%
[1]; 50 mg twice daily, concomitant group, 16 of 20 patients
  Complete remission (CR) rate: 80%
[1]; 50 mg twice daily, of four patients with TKD mutations
  Patients who have died: none
[1]; 50 mg twice daily, sequential group, 16 of 20 patients
  Complete remission (CR) rate: 80%
[1]; 100 mg twice daily (dose schedules I and II), 13 of 29 patients
  Complete remission rate: 45%
[1]; 100 mg twice daily, FLT3-mutant blasts, two patients
  Patients surviving more than 4 years: 33%
[1]; 100 mg twice daily, FLT3-wild-type blasts, 8 of 23
  Complete remission rate: 35%
[1]; 100 mg twice daily, FLT3-wild-type blasts, nine patients
  Patients surviving more than 4 years: 39%
[2]
  Deaths on treatment or within 28 days of the last dose of study drug: No deaths
[3]; FLT3-mutant (n = 55)
  Patients with ≥ 50% peripheral blood blast reduction: 70%
[3]; FLT3-wild-type (n = 60)
  Patients with ≥ 50% peripheral blood blast reduction: 42%
[3]
  Complete remissions (CRs): not observed
[4]; [6]
  Plasma concentration, Max: LLOQ
  Plasma concentration, Median: LLOQ
  Plasma concentration, Min: LLOQ
[4]; [7]
  Plasma concentration, Max: LLOQ
  Plasma concentration, Median: LLOQ
  Plasma concentration, Min: LLOQ
[4]; [8]
  Plasma concentration, Max: 1040 ng/mL
  Plasma concentration, Min: LLOQ
[4]; [9]
  Plasma concentration, Max: 83.8 ng/mL
  Plasma concentration, Median: LLOQ
  Plasma concentration, Min: LLOQ
[4]; [10]
  Plasma concentration, Max: 2300 ng/mL
  Plasma concentration, Median: 1170 ng/mL
  Plasma concentration, Min: 355 ng/mL
[4]; [11]
  Plasma concentration, Max: 3380 ng/mL
  Plasma concentration, Median: 1010 ng/mL
  Plasma concentration, Min: 630 ng/mL
[4]; [12]
  Plasma concentration, Max: 4980 ng/mL
  Plasma concentration, Median: 1490 ng/mL
  Plasma concentration, Min: LLOQ
[4]; [13]
  Plasma concentration, Max: 8710 ng/mL
  Plasma concentration, Median: 2355 ng/mL
  Plasma concentration, Min: 1680 ng/mL
[4]; [14]
  Plasma concentration, Max: 7300 ng/mL
  Plasma concentration, Median: 1870 ng/mL
  Plasma concentration, Min: 87.1 ng/mL
[4]; [15]
  Plasma concentration, Max: 7120 ng/mL
  Plasma concentration, Median: 1420 ng/mL
  Plasma concentration, Min: 96.3 ng/mL
[4]; Concomitant, Induction cycle 1, day 22.5
  Plasma concentration, Min: LLOQ
[4]; Concomitant, Induction cycle 1, day 29.5
  Plasma concentration, Min: LLOQ
[4]; [16]
  Plasma concentration, Max: LLOQ
  Plasma concentration, Median: LLOQ
  Plasma concentration, Min: LLOQ
[4]; [17]
  Plasma concentration, Max: 91.2 ng/mL
  Plasma concentration, Median: LLOQ
  Plasma concentration, Min: LLOQ
[4]; [18]
  Plasma concentration, Max: 3790 ng/mL
  Plasma concentration, Median: 1330 ng/mL
  Plasma concentration, Min: 635 ng/mL
[4]; [19]
  Plasma concentration, Max: 4000 ng/mL
  Plasma concentration, Min: LLOQ
[4]; [20]
  Plasma concentration, Max: 2880 ng/mL
  Plasma concentration, Median: 1495 ng/mL
  Plasma concentration, Min: 460 ng/mL
[4]; [21]
  Plasma concentration, Max: 3660 ng/mL
  Plasma concentration, Median: 1585 ng/mL
  Plasma concentration, Min: 635 ng/mL
[4]; [22]
  Plasma concentration, Max: 3290 ng/mL
  Plasma concentration, Median: 1680 ng/mL
  Plasma concentration, Min: 922 ng/mL
[4]; [23]
  Plasma concentration, Max: 17100 ng/mL
  Plasma concentration, Median: 3660 ng/mL
  Plasma concentration, Min: 1290 ng/mL
[4]; [24]
  Plasma concentration, Max: 19200 ng/mL
  Plasma concentration, Median: 2755 ng/mL
  Plasma concentration, Min: 904 ng/mL
[4]; [25]
  Plasma concentration, Max: 4970 ng/mL
  Plasma concentration, Median: 57.2 ng/mL
[4]; midostaurin 50 mg twice daily
  Trough concentrations during off-treatment periods: low or undetectable levels

## CNC(=O)c1cc(Oc2ccc(NC(=O)Nc3ccc(Cl)c(C(F)(F)F)c3)cc2)ccn1 [Sorafenib]
[5]
  CR rate: 93%
